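Five compound concentrations were applied to cells in 96-well plates for 48 hours; endpoints were derived by simple linear interpolation of the resulting dose-response curve. GI50: concentration for 50% inhibition of growth.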 Calls of active or inactive are those of the source. Cut-off read from the data, not from the text of the source: active = GI50 up to about 1.1 µM and inactive = higher.
Experiments:
Assay in all cases: NCI anticancer screen, dose series, 48 h
[1] = test system: CAKI-1
[2] = test system: HL-60
[3] = test system: NCI-H460
[4] = test system: IGROV-1
[5] = test system: MOLT-4
[6] = test system: UACC-257
[7] = test system: HCC 2998
[8] = test system: Malme-3M
[9] = test system: UACC-62
[10] = test system: DMS-114
[11] = test system: A549
[12] = test system: HT-29
[13] = test system: OVCAR-3
[14] = test system: KM12
[15] = test system: HCT-116
[16] = test system: SK-MEL-2
[17] = test system: SK-MEL-28
[18] = test system: LXFL 529
[19] = test system: Hs-578T
[20] = test system: NCI/ADR-RES

Measured: GI50

CN(C)c1ccccc1CC(c1c[nH]c2ccccc12)c1c[nH]c2ccccc12
inactive: [1] 4.94 µM | [2] 7.93 µM | [3] 4.72 µM | [4] 15.8 µM | [5] 4.35 µM | [6] 16.2 µM | [7] 9.46 µM | [8] 17.1 µM | [9] 14.2 µM | [10] 7.62 µM | [11] 10.2 µM | [12] 5.38 µM | [13] 12.8 µM | [14] 4.36 µM | [15] 11.2 µM | [16] 14.8 µM

COc1cc(C2C(Cl)C(=O)N2NC(=O)c2ccc(NC(C)=O)cc2)ccc1O (stereo not given)
inactive: [1] > 100 µM | [2] > 100 µM | [3] > 100 µM | [17] > 100 µM | [4] > 100 µM | [5] > 100 µM | [6] > 100 µM | [8] > 100 µM | [9] > 100 µM | [10] > 100 µM | [11] > 100 µM | [12] > 100 µM | [13] > 100 µM | [18] > 100 µM | [15] > 100 µM | [16] > 100 µM

CC(=O)OCC1OC(NC(=S)Nn2c(-c3ccccc3)nc3ccccc3c2=O)C(OC(C)=O)C(OC(C)=O)C1OC(C)=O (stereo not given)
inactive: [1] > 100 µM | [19] 78.7 µM | [2] 70.8 µM | [3] > 100 µM | [17] 90.2 µM | [4] 33.8 µM | [5] 46.9 µM | [6] > 100 µM | [7] 97.9 µM | [8] 52.8 µM | [20] > 100 µM | [9] 51.5 µM | [11] > 100 µM | [12] > 100 µM | [13] 30.8 µM | [14] > 100 µM | [15] > 100 µM | [16] 25.9 µM

c1ccc(CCCCNCc2cc(CNCCCCc3ccccc3)cc(CNCCCCc3ccccc3)c2)cc1
inactive: [1] 1.86 µM | [19] 1.5 µM | [8] 1.76 µM | [9] 1.76 µM | [13] 1.47 µM | [15] 1.97 µM | [16] 1.82 µM
active: [2] 0.226 µM | [3] 0.364 µM | [17] 0.948 µM | [4] 0.815 µM | [5] 0.251 µM | [6] 0.859 µM | [7] 0.149 µM | [20] 0.76 µM | [11] 0.263 µM | [12] 1.02 µM | [14] 0.544 µM

Cc1ccc(NC(=O)C(=O)CC(=O)c2ccccc2)cc1C
inactive: [1] 56.8 µM | [3] > 100 µM | [17] > 100 µM | [4] 69.8 µM | [6] > 100 µM | [7] > 100 µM | [8] > 100 µM | [9] 70.6 µM | [10] 86.9 µM | [11] > 100 µM | [12] > 100 µM | [13] 33.6 µM | [18] 76.9 µM | [14] 35.8 µM | [15] 60.3 µM

c1cc2ccc1C1NCCCN1CCN1CCCNC1c1ccc(cc1)C1NCCCN1CCN1CCCNC21 (stereo not given)
inactive: [1] > 100 µM | [2] 20.1 µM | [3] 77.3 µM | [17] > 100 µM | [4] > 100 µM | [5] > 100 µM | [6] > 100 µM | [8] 44.4 µM | [9] > 100 µM | [10] > 100 µM | [11] > 100 µM | [12] > 100 µM | [13] 50.7 µM | [18] 78.7 µM | [14] > 100 µM | [15] 42.6 µM | [16] > 100 µM

C/C=C(\C)CC/C=C/CO[Si](C)(C)C(C)(C)C
inactive: [1] > 100 µM | [19] > 100 µM | [2] 32.6 µM | [3] > 100 µM | [17] > 100 µM | [4] > 100 µM | [5] 39 µM | [6] 69 µM | [7] > 100 µM | [8] 51.1 µM | [20] > 100 µM | [9] > 100 µM | [11] 39.4 µM | [12] 42.5 µM | [13] 54.7 µM | [14] > 100 µM | [15] 46.8 µM | [16] 35.4 µM

CN1CCCCC(C(O)(c2ccccc2)c2ccccc2)C1=O (stereo not given)
inactive: [3] 80 µM | [17] > 100 µM | [4] > 100 µM | [5] > 100 µM | [6] > 100 µM | [7] > 100 µM | [8] > 100 µM | [9] > 100 µM | [10] 86.1 µM | [11] > 100 µM | [12] > 100 µM | [13] > 100 µM | [18] 81.7 µM | [14] > 100 µM | [15] 24.8 µM | [16] > 100 µM

CCC1C(C)c2c([nH]c3ccccc23)C2C(=O)N(c3ccccc3)C(=O)C21 (stereo not given)
inactive: [2] 11.1 µM | [3] 14.3 µM | [17] 17.7 µM | [4] 3.67 µM | [5] 9.31 µM | [7] 15.5 µM | [8] 16.6 µM | [9] 9.42 µM | [10] 13.4 µM | [11] 17.3 µM | [12] 12.5 µM | [13] 13.3 µM | [18] 19.6 µM | [14] 15 µM

CC(=O)C1(O)CC2(c3ccccc3)C(=O)C1(c1ccccc1)C(c1ccccc1)=C2c1ccccc1 (stereo not given)
inactive: [1] > 100 µM | [2] 29.4 µM | [3] > 100 µM | [4] > 100 µM | [5] 39.6 µM | [6] 35.6 µM | [8] > 100 µM | [9] 79.4 µM | [10] 10.9 µM | [11] 54.6 µM | [12] > 100 µM | [13] > 100 µM | [18] > 100 µM | [14] > 100 µM | [15] 30.9 µM

[O-][n+]1c2ccccc2[n+]([O-])c2cc(Br)ccc21
inactive: [1] 5.41 µM | [19] 35.2 µM | [2] 1.31 µM | [3] 10.4 µM | [17] 54.1 µM | [4] 5.81 µM | [6] 17.9 µM | [7] 16.5 µM | [8] 23.2 µM | [20] 16.1 µM | [9] 18.3 µM | [11] 10.8 µM | [12] 18.6 µM | [13] 2.21 µM | [14] 12.6 µM | [15] 70.1 µM | [16] 29 µM
active: [5] 0.144 µM

CC(C)(C)C(=C[S+]([O-])/N=C/c1ccccc1)C(C)(C)C (stereo not given)
inactive: [1] 30 µM | [3] 24.8 µM | [17] > 100 µM | [4] 25.8 µM | [5] 14 µM | [6] 52 µM | [8] 22.3 µM | [10] 28.1 µM | [11] 33.4 µM | [12] 38.4 µM | [13] 34.1 µM | [18] 28.4 µM | [14] 44.6 µM | [15] 30.4 µM | [16] 15.9 µM

Cc1ccc(-c2cc(N)n(-c3nc4c([nH]3)c(=O)n(C)c(=O)n4C)n2)cc1
active: [1] 0.778 µM
inactive: [19] 23 µM | [2] 5.04 µM | [3] 1.71 µM | [17] 6.14 µM | [4] 2.2 µM | [5] 2.06 µM | [6] 15.3 µM | [7] 7.67 µM | [8] 3.86 µM | [20] 1.55 µM | [9] 5.37 µM | [11] 4.68 µM | [12] 4.53 µM | [13] 4.55 µM | [14] 4.88 µM | [15] 2.69 µM | [16] 6.64 µM

CCOC(=O)c1c(-c2[nH]c(C(=O)OCc3ccccc3)c(C)c2C(=O)OCC)[nH]c(C(=O)OCc2ccccc2)c1C
inactive: [1] > 100 µM | [3] > 100 µM | [17] > 100 µM | [4] > 100 µM | [5] > 100 µM | [7] > 100 µM | [8] > 100 µM | [9] > 100 µM | [10] > 100 µM | [11] > 100 µM | [12] > 100 µM | [13] > 100 µM | [18] > 100 µM | [15] > 100 µM | [16] > 100 µM

CC1C2C=C(O)C(=O)C(C2=O)C1c1ccccc1 (stereo not given)
inactive: [1] > 100 µM | [17] > 100 µM | [4] > 100 µM | [5] > 100 µM | [6] > 100 µM | [7] > 100 µM | [8] > 100 µM | [9] > 100 µM | [11] > 100 µM | [12] > 100 µM | [13] > 100 µM | [18] > 100 µM | [14] > 100 µM | [16] > 100 µM

CC1=CC(=O)N2C(OC[C@@H]2c2ccccc2)O1 (stereo not given in full)
inactive: [1] > 100 µM | [2] > 100 µM | [3] > 100 µM | [17] > 100 µM | [4] > 100 µM | [5] > 100 µM | [6] > 100 µM | [8] > 100 µM | [9] > 100 µM | [11] > 100 µM | [12] > 100 µM | [13] > 100 µM | [18] > 100 µM | [14] > 100 µM | [15] > 100 µM | [16] > 100 µM

CC(C)c1cc(C(C)C)c(S(=O)(=O)N=[N+]=[N-])c(C(C)C)c1
inactive: [1] > 100 µM | [2] 22.9 µM | [3] > 100 µM | [17] > 100 µM | [4] > 100 µM | [5] 21.3 µM | [6] > 100 µM | [7] > 100 µM | [8] > 100 µM | [9] > 100 µM | [11] > 100 µM | [12] 46.6 µM | [13] > 100 µM | [18] > 100 µM | [14] > 100 µM | [15] > 100 µM
